Results on 30 compounds are retold here after US11560385B2, “Proteasome activity enhancing compounds” (Proteostasis Therapeutics, Inc., priority 2018, dated 2023).

pIC50: −log10 of the molar value.

The target in assay [1] is T1, USP14 (Homo sapiens (Human), UniProt P54578). The assay can be described thus: Usp14 inhibition assay (Example 5A, A-series compounds). Format: biochemical. The settings on record: average value from a minimum of two experimental determinations; read-out: Usp14 IC50 Category. The text has this:
Example 5A: Usp14 Inhibition Assay
(§1) The IC50 values in the Table below represent the average value from a minimum of two experimental determinations.

Assay [2] addresses T1, USP14. The assay can be described thus: Usp14 inhibition assay (Example 57B, B-series compounds). The settings on record: IC50 class; average value from a minimum of two experimental determinations. The assay is classed as biochemical.
Excerpt: Example 57B: Usp14 Inhibition Assay
as §1

T1 sequence (P54578 whole entry, looked up): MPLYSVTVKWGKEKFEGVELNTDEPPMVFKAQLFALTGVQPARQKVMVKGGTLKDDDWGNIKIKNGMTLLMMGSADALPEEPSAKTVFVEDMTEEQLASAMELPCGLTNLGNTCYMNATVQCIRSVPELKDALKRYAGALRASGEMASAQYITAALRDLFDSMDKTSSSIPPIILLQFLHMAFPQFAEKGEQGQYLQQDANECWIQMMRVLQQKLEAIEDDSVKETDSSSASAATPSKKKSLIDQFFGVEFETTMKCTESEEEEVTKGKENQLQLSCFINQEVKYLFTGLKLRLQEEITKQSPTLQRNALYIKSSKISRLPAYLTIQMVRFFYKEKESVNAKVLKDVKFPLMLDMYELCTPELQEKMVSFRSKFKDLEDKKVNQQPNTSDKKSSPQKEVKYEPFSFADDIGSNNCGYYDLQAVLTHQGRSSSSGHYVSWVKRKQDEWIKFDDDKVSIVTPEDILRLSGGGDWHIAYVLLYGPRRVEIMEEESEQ

In the case of `Cc1c(C(=O)CN2C3CCC2[C@@H](O)C3)c2ccc(CCC#N)cc2n1-c1ccc(Cl)cc1` (mixture of isomers) [Example 10A, (±)-3-(1-(4-Chlorophenyl)-3-(2-((2S)-2-hydroxy-7-azabicyclo[2.2.1]heptan-7-yl)acetyl)-2-methyl-1H-indol-6-yl)propanenitrile], the pIC50 – broadly, the IC50 on a negative log10 scale, so that one unit is a factor of ten – at USP14 [1] was more than 7.30.

Consider `CO[C@H]1CC2CCC1N2CC(=O)c1c(C)n(-c2ccc(Cl)cc2)c2cc(CCC#N)ccc12` (mixture of isomers) [Example 15A, (±)-3-(1-(4-Chlorophenyl)-3-(2-((2S)-2-methoxy-7-azabicyclo[2.2.1]heptan-7-yl)acetyl)-2-methyl-1H-indol-6-yl)propanenitrile], for which the negative-log IC50 (pIC50) at USP14 [1] is more than 7.30.

Regarding `Cc1c(C(=O)CN2C3CCC2[C@@H](O)C3)c2ccc(CCCC#N)cc2n1-c1ccc(Cl)cc1` (mixture of isomers) [Example 18A, (±)-4-(1-(4-Chlorophenyl)-3-(2-((2S)-2-hydroxy-7-azabicyclo[2.2.1]heptan-7-yl)acetyl)-2-methyl-1H-indol-6-yl)butanenitrile], the pIC50 at USP14 [1] was more than 7.30.

On to `CO[C@H]1CC2CCC1N2CC(=O)c1c(C)n(-c2ccc(Cl)cc2)c2cc(CCCC#N)ccc12` (mixture of isomers) [Example 19A, (±)-4-(1-(4-Chlorophenyl)-3-(2-((2S)-2-methoxy-7-azabicyclo[2.2.1]heptan-7-yl)acetyl)-2-methyl-1H-indol-6-yl)butanenitrile], for which the pIC50 at USP14 [1] is more than 7.30.

Regarding `Cc1c(C(=O)CN2C3CCC2C(O)C3)c2ccc(CC3COC3)cc2n1-c1ccc(Cl)cc1` (stereo in doubt) [Example 13A, 1-(1-(4-Chlorophenyl)-2-methyl-6-(oxetan-3-ylmethyl)-1H-indol-3-yl)-2-((1R,2R,4S)-2-hydroxy-7-azabicyclo[2.2.1]heptan-7-yl)ethan-1-one], the pIC50 on USP14 [1] is more than 7.30.

For the compound `Cc1c(C(=O)CN2C3CC[C@@H]2C[C@](O)(C(C)(C)C)C3)c2ccc(CCC#N)cc2n1-c1ccc(Cl)cc1` (stereo in doubt) [Example 31A, 3-(3-(2-(3-(tert-Butyl)-3-hydroxy-8-azabicyclo[3.2.1]octan-8-yl)acetyl)-1-(4-chlorophenyl)-2-methyl-1H-indol-6-yl)propanenitrile], at USP14 [1], the pIC50 was less than 7.00.

Consider `Cc1c(C(=O)CN2C3CCC2CC3)c2ccc(CCS(C)(=O)=O)cc2n1-c1ccc(Cl)cc1` [Example 1A, 2-(7-Azabicyclo[2.2.1]heptan-7-yl)-1-(1-(4-chlorophenyl)-2-methyl-6-(2-(methylsulfonyl)ethyl)-1H-indol-3-yl)ethan-1-one], for which the pIC50 on USP14 [1] is more than 7.30.

For the compound `Cc1c(C(=O)CN2[C@@H]3CCC[C@H]2CC3)c2ccc(CCS(C)(=O)=O)cc2n1-c1ccc(Cl)cc1` [Example 2A, 2-((1R,5S)-8-Azabicyclo[3.2.1]octan-8-yl)-1-(1-(4-chlorophenyl)-2-methyl-6-(2-(methylsulfonyl)ethyl)-1H-indol-3-yl)ethan-1-one], the pIC50 at USP14 [1] is more than 7.30.

Consider `Cc1c(C(=O)CN2C3CCC2CC3)c2ccc(CS(C)(=O)=O)cc2n1-c1ccc(Cl)cc1` [Example 3A, 2-(7-Azabicyclo[2.2.1]heptan-7-yl)-1-(1-(4-chlorophenyl)-2-methyl-6-((methylsulfonyl)methyl)-1H-indol-3-yl)ethan-1-one], for which, at USP14 [1], the pIC50 was 7.00 to 7.30.

For the compound `Cc1c(C(=O)CN2C3CCC2CC(O)C3)c2ccc(CCS(C)(=O)=O)cc2n1-c1ccc(Cl)cc1` [Example 5A, 1-(1-(4-Chlorophenyl)-2-methyl-6-(2-(methylsulfonyl)ethyl)-1H-indol-3-yl)-2-((1R,3S,5S)-3-hydroxy-8-azabicyclo[3.2.1]octan-8-yl)ethan-1-one], the pIC50 on USP14 [1] was more than 7.30.

On to `Cc1c(C(=O)CN2[C@H]3CC[C@@H]2[C@@H](O)C3)c2ccc(CCS(C)(=O)=O)cc2n1-c1ccc(Cl)cc1` [Example 6A, 1-(1-(4-Chlorophenyl)-2-methyl-6-(2-(methylsulfonyl)ethyl)-1H-indol-3-yl)-2-((1R,2S,4S)-2-hydroxy-7-azabicyclo[2.2.1]heptan-7-yl)ethan-1-one], for which the pIC50 at USP14 [1] is more than 7.30.

Consider `Cc1c(C(=O)CN2CCC(O)CC2)c2ccc(CCS(C)(=O)=O)cc2n1-c1ccc(Cl)cc1` [Example 7A, 1-(1-(4-Chlorophenyl)-2-methyl-6-(2-(methylsulfonyl)ethyl)-1H-indol-3-yl)-2-(4-hydroxypiperidin-1-yl)ethan-1-one], for which the negative-log IC50 (pIC50) on USP14 [1] was more than 7.30.

For `Cc1c(C(=O)CN2C3CCC2CC3)c2ccc(CCC#N)cc2n1-c1ccc(Cl)cc1` [Example 8A, 3-(3-(2-(7-Azabicyclo[2.2.1]heptan-7-yl)acetyl)-1-(4-chlorophenyl)-2-methyl-1H-indol-6-yl)propanenitrile], the pIC50 on USP14 [1] was more than 7.30.

For the compound `Cc1c(C(=O)CN2CCC(O)CC2)c2ccc(CCC#N)cc2n1-c1ccc(Cl)cc1` [Example 9A], at USP14 [1], the pIC50 was less than 7.00.

With `Cc1c(C(=O)CN2C3CCC2CC3)c2ccc(CC3COC3)cc2n1-c1ccc(Cl)cc1` [Example 11A, 2-(7-Azabicyclo[2.2.1]heptan-7-yl)-1-(1-(4-chlorophenyl)-2-methyl-6-(oxetan-3-ylmethyl)-1H-indol-3-yl)ethan-1-one], at USP14 [1], the pIC50 was more than 7.30.

Turning to `CO[C@H]1C[C@@H]2CC[C@H]1N2CC(=O)c1c(C)n(-c2ccc(Cl)cc2)c2cc(CC3COC3)ccc12` [Example 12A, 1-(1-(4-Chlorophenyl)-2-methyl-6-(oxetan-3-ylmethyl)-1H-indol-3-yl)-2-((1R,2S,4S)-2-methoxy-7-azabicyclo[2.2.1]heptan-7-yl)ethan-1-one], the pIC50 at USP14 [1] is 7.00 to 7.30.

With `Cc1c(C(=O)CN2CCC(O)CC2)c2ccc(CC3COC3)cc2n1-c1ccc(Cl)cc1` [Example 14A, 1-(1-(4-Chlorophenyl)-2-methyl-6-(oxetan-3-ylmethyl)-1H-indol-3-yl)-2-(4-hydroxypiperidin-1-yl)ethan-1-one], the negative logarithm of the IC50 (pIC50) at USP14 [1] was 7.00 to 7.30.

Turning to `Cc1c(C(=O)CN2C3CCC2CC3)c2ccc(CCS(=O)(=O)C3CC3)cc2n1-c1ccc(Cl)cc1` [Example 16A, 2-(7-Azabicyclo[2.2.1]heptan-7-yl)-1-(1-(4-chlorophenyl)-6-(2-(cyclopropylsulfonyl)ethyl)-2-methyl-1H-indol-3-yl)ethan-1-one], the pIC50 on USP14 [1] is more than 7.30.

Turning to `Cc1c(C(=O)CN2C3CCC2CC3)c2ccc(CCCC#N)cc2n1-c1ccc(Cl)cc1` [Example 17A, 4-(3-(2-(7-Azabicyclo[2.2.1]heptan-7-yl)acetyl)-1-(4-chlorophenyl)-2-methyl-1H-indol-6-yl)butanenitrile], the pIC50 at USP14 [1] is more than 7.30.

Consider `Cc1c(C(=O)CN2C3CCC2CC(O)C3)c2ccc(CCC#N)cc2n1-c1ccc(Cl)cc1` [Example 20A, 3-(1-(4-Chlorophenyl)-3-(2-((1R,3R,5S)-3-hydroxy-8-azabicyclo[3.2.1]octan-8-yl)acetyl)-2-methyl-1H-indol-6-yl)propanenitrile], for which the pIC50 at USP14 [1] is less than 7.00.

Turning to `Cc1c(C(=O)CN2[C@@H]3CC[C@H]2C[C@H](O)C3)c2ccc(CCC#N)cc2n1-c1ccc(Cl)cc1` [Example 21A, 3-(1-(4-Chlorophenyl)-3-(2-((1R,3S,5S)-3-hydroxy-8-azabicyclo[3.2.1]octan-8-yl)acetyl)-2-methyl-1H-indol-6-yl)propanenitrile], the pIC50 at USP14 [1] was 7.00 to 7.30.

As for `Cc1c(C(=O)CN2[C@@H]3CC[C@H]2C[C@@H](O)C3)c2ccc(CC3COC3)cc2n1-c1ccc(Cl)cc1` [Example 22A, 1-(1-(4-Chlorophenyl)-2-methyl-6-(oxetan-3-ylmethyl)-1H-indol-3-yl)-2-((1R,3r,5S)-3-hydroxy-8-azabicyclo[3.2.1]octan-8-yl)ethan-1-one], at USP14 [1], the pIC50 was 7.00 to 7.30.

Compound `Cc1c(F)c(C(=O)CN2C3CCC2CC3)c(C)n1-c1ccc(C#N)cc1` [Example 104B, 4-(3-(2-((1s,4s)-7-Azabicyclo[2.2.1]heptan-7-yl)acetyl)-4-fluoro-2,5-dimethyl-1H-pyrrol-1-yl)benzonitrile] had a pIC50 against USP14 [2] of 6.30 to 7.30.

On to `Cc1cc(C(=O)CN2[C@@H]3CC[C@H]2[C@@H](C)[C@H]3C)c(C)n1-c1ccc(C#N)cc1` [Example 124B, 4-(3-(2-((1R,2R,3S,4S)-2,3-Dimethyl-7-azabicyclo[2.2.1]heptan-7-yl)acetyl)-2,5-dimethyl-1H-pyrrol-1-yl)benzonitrile], for which the pIC50 against USP14 [2] is 6.30 to 7.30.

Compound `Cc1cc(C(=O)CN2C3CCC2(C)CC3)c(C)n1-c1ccc(C#N)cc1` [Example 125B, 4-(2,5-Dimethyl-3-(2-(1-methyl-7-azabicyclo[2.2.1]heptan-7-yl)acetyl)-1H-pyrrol-1-yl)benzonitrile] had a pIC50 against USP14 [2] of 6.30 to 7.30.

In turn, `Cc1cc(C(=O)CN2C3CCC2(CO)CC3)c(C)n1-c1ccc(C#N)cc1` [Example 126B, 4-(3-(2-(1-(Hydroxymethyl)-7-azabicyclo[2.2.1]heptan-7-yl)acetyl)-2,5-dimethyl-1H-pyrrol-1-yl)benzonitrile] had a pIC50 against USP14 [2] of 6.30 to 7.30.

As to `Cc1cc(C(=O)CN2C3CCC2(C(=O)O)CC3)c(C)n1-c1ccc(C#N)cc1` [Example 127B, 7-(2-(1-(4-Cyanophenyl)-2,5-dimethyl-1H-pyrrol-3-yl)-2-oxoethyl)-7-azabicyclo[2.2.1]heptane-1-carboxylic Acid], on USP14 [2], the negative logarithm of the IC50 (pIC50) was less than 6.30.

The compound `Cc1nc(Cc2c(Cl)c(C(=O)CN3C4CCC3[C@@H](O)C4)c(C)n2-c2ccc(C#N)cc2)cs1` (stereo partly drawn) [Example 128B] showed a pIC50 at USP14 [2] of more than 7.30.

On USP14 [2], `Cc1c(C(=O)CN2C3CCC2CC3)cc(C#N)n1-c1ccc(C#N)cc1` [Example 137B, 4-(2-(7-Azabicyclo[2.2.1]heptan-7-yl)acetyl)-1-(4-cyanophenyl)-5-methyl-1H-pyrrole-2-carbonitrile] had a negative-log IC50 (pIC50) of more than 7.30.

On to `Cc1cc(C(=O)CN2[C@@H]3CC[C@H]2[C@H](C)[C@@H]3C)c(C)n1-c1ccc(C#N)cc1` [Example 138B, 4-(3-(2-((1R,2S,3R,4S)-2,3-Dimethyl-7-azabicyclo[2.2.1]heptan-7-yl)acetyl)-2,5-dimethyl-1H-pyrrol-1-yl)benzonitrile], for which the negative-log IC50 (pIC50) at USP14 [2] was less than 6.30.
